Series [1] in a line: Lipophilicity: distribution coefficient in 1:1 1-octanol/phosphate-buffered saline at pH 7.4. It counts as physicochemical. As for the experimental part: (§1) The lipophilicity of [^61Cu]Cu-DOTAGA-PSMA-I&T and [^61Cu]Cu-NODAGA-PSMA-I&T was assessed by determining the distribution coefficient in a 1:1 mixture of 1-octanol–to–phosphate-buffered saline at pH 7.4, in comparison with all reference radiotracers. Inhibitory concentration of 50% (IC50) was assessed by competition binding on lymph node carcinoma of the prostate (LNCaP) using ((S)-1-carboxy-5-(4-(-^125I-iodo-benzamido)pentyl)carbamoyl)-L-glutamic acid as the reference radioligand. Cellular uptake and distribution were assessed in LNCaP cells at 5, 15, 30, 60, and 120 min after exposure to the radioligand at 37°C, either alone or in the presence of 10 µM 2-(phosphonomethyl)pentanedioic acid to distinguish between specific and nonspecific uptake.

The subject of a further series is LNCaP xenografts. Briefly: Biodistribution in LNCaP xenografts. Type of series: in vivo, mice. As for the experimental part:
All animal experiments were conducted in accordance with Swiss animal welfare laws and regulations under license number 30515 granted by the Veterinary Office, Department of Health, Canton Basel-Stadt, Switzerland. Male athymic nude-Foxn1^nu/Foxn1^+ mice (Envigo), 4–6 wk old, were inoculated subcutaneously on the shoulder with 10^7 LNCaP cells, freshly suspended in a 1:1 ratio of sterile minimum essential medium with basal medium Eagle and Matrigel. The tumors were allowed to grow to a volume of approximately 200 mm^3.
The biodistribution of [^61Cu]Cu-DOTAGA-PSMA-I&T and [^61Cu]Cu-NODAGA-PSMA-I&T (100 µL/200 pmol/2–3 MBq) was compared with that of [^68Ga]Ga-DOTAGA-PSMA-I&T, [^68Ga]Ga-NODAGA-PSMA-I&T, and [^68Ga]Ga-PSMA-11 (100 µL/200 pmol/3–5 MBq), as well as [^18F]PSMA-1007 (100 µL/70 pmol/15 MBq). This comparison was conducted at 1 h after injection for all radiotracers and at 4 h after injection for the ^61Cu-labeled tracers and [^18F]PSMA-1007. The specificity of the ^61Cu-labeled tracers was assessed at 1 h after injection by blocking studies with 2-(phosphonomethyl)pentanedioic acid (100 µL/1.3 µmol) being injected 3–5 min before the injection of the radiotracer.

The next series concerns the target T1, PSMA (Homo sapiens, UniProt Q04609).
T1 construct: endogenous in cells; host or cells: LNCaP cells
Description: Competition binding on LNCaP cells using [^125I-BA]KuE as reference radioligand. To be noted: [^125I-BA]KuE 0.2 nM, 1 h on ice, determined with natCu/natGa complexes. As for the experimental part:
as §1
(§2) FIGURE 1. In vitro assessment in LNCaP cells after 1 h at 37°C. (A) Competition binding activity curves of ^natCu-DOTAGA-PSMA-I&T, ^natCu-NODAGA-PSMA-I&T, and ^natGa-PSMA-11 on LNCaP cells after 1 h of incubation on ice, using ((S)-1-carboxy-5-(4-(-^125I-iodo-benzamido)pentyl)carbamoyl)-L-glutamic acid ([^125I-BA]KuE) at concentration of 0.2 nM as reference radioligand. (B) Cellular uptake (surface-bound + internalized). Cell surface–bound and internalized fractions are indicated. Results represent mean ± SD of specific (total − nonspecific) uptake from minimum of 2 separate experiments, each in triplicate.

A further series deals with LNCaP cells. Briefly: Cellular uptake and distribution (surface-bound, internalized) in LNCaP cells. Type of series: cell-based. To be noted: 1 h, 37°C, specific uptake. As for the experimental part: as §1, §2

Each structure is given as a SMILES string.

The IC50 is the concentration that gives 50% inhibition. A low value points to greater potency.

T1 sequence (Q04609 whole entry): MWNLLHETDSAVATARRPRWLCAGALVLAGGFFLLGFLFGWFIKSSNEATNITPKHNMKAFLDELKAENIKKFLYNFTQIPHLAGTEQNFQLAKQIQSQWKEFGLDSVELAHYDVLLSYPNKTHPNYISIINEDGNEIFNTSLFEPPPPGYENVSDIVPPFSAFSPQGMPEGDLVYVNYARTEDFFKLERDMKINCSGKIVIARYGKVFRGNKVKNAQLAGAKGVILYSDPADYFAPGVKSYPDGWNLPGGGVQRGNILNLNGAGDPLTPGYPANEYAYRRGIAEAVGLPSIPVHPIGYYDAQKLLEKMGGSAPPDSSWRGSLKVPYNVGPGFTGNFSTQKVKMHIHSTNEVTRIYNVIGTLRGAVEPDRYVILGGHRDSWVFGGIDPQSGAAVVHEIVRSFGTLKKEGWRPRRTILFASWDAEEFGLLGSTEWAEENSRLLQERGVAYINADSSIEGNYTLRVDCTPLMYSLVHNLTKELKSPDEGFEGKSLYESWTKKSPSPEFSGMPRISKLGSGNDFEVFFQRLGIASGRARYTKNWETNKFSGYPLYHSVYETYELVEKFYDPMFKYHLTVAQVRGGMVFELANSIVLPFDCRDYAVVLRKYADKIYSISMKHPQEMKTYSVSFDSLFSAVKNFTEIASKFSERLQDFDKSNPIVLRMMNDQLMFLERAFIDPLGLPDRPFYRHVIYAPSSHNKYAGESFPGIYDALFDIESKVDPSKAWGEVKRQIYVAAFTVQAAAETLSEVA

In the case of `O=C(O)CC[C@H](NC(=O)N[C@@H](CCCCNC(=O)[C@H](Cc1ccc2ccccc2c1)NC(=O)c1ccc(CNC(=O)[C@H](CCC(=O)O)NC(=O)[C@H](CCC(=O)O)NC(=O)c2ccc([18F])nc2)cc1)C(=O)O)C(=O)O` [[^18F]PSMA-1007, reference compound], the logDpH7.4 in series [1] is listed as −3.02 ± 0.11. Besides, in the series with LNCaP xenografts (1 h after injection), the “Biodistribution, Adrenals” value was determined as 7.18 ± 2.20 %IA/g; the “Biodistribution, Blood” value was 0.41 ± 0.11 %IA/g; the “Biodistribution, Femur” value is given as 0.94 ± 0.13 %IA/g; the “Biodistribution, Heart” value is given as 1.25 ± 0.29 %IA/g. Further, in the series on LNCaP xenografts (1 h after injection), the “Biodistribution, Intestine” value is 1.04 ± 0.33 %IA/g; the “Biodistribution, Kidneys” value is 100 ± 17 %IA/g; the “Biodistribution, Liver” value is reported as 0.93 ± 0.26 %IA/g; the “Biodistribution, Lung” value is 2.08 ± 0.24 %IA/g. In addition, in the series on LNCaP xenografts (1 h after injection), the “Biodistribution, Muscles” value turned out to be 0.53 ± 0.09 %IA/g; the “Biodistribution, Pancreas” value is recorded as 1.32 ± 0.58 %IA/g; the “Biodistribution, Salivary glands” value is given as 2.54 ± 0.72 %IA/g; the “Biodistribution, Spleen” value turned out to be 11.0 ± 1.1 %IA/g. Also, in the series with LNCaP xenografts (1 h after injection), the “Biodistribution, Stomach” value came to 0.75 ± 0.15 %IA/g; the “Biodistribution, Tumor (tumor uptake)” value was 9.70 ± 2.57 %IA/g; the Tumor-to-Adrenals ratio is 1.45 ± 0.55; the Tumor-to-Blood ratio is 25.8 ± 11.5. Moreover, in the series on LNCaP xenografts (1 h after injection), the Tumor-to-Intestine ratio was found to be 10.3 ± 4.8, the Tumor-to-Kidneys ratio turned out to be 0.10 ± 0.03, the Tumor-to-Liver ratio is on record as 11.3 ± 4.5 and the Tumor-to-Muscles ratio came to 19.2 ± 6.5. Further, in the series with LNCaP xenografts (1 h after injection), the Tumor-to-Salivary glands ratio came out at 4.12 ± 1.60 and the Tumor-to-Spleen ratio is given as 0.89 ± 0.20. In the series with LNCaP xenografts (4 h after injection), the “Biodistribution, Adrenals” value was 8.03 ± 2.66 %IA/g; the “Biodistribution, Blood” value stood at 0.17 ± 0.04 %IA/g; the “Biodistribution, Femur” value came out at 0.62 ± 0.11 %IA/g; the “Biodistribution, Heart” value was 0.53 ± 0.23 %IA/g. Further, in the series on LNCaP xenografts (4 h after injection), the “Biodistribution, Intestine” value came out at 0.43 ± 0.22 %IA/g; the “Biodistribution, Kidneys” value is reported as 132 ± 9 %IA/g; the “Biodistribution, Liver” value was determined as 0.32 ± 0.16 %IA/g; the “Biodistribution, Lung” value amounted to 1.61 ± 0.58 %IA/g. In the series on LNCaP xenografts (4 h after injection), the “Biodistribution, Muscles” value is reported as 0.27 ± 0.11 %IA/g; the “Biodistribution, Pancreas” value worked out at 0.80 ± 0.32 %IA/g; the “Biodistribution, Salivary glands” value amounted to 1.62 ± 0.43 %IA/g; the “Biodistribution, Spleen” value is listed as 8.33 ± 2.11 %IA/g. For the same compound, in the series on LNCaP xenografts (4 h after injection), the “Biodistribution, Stomach” value is on record as 0.47 ± 0.16 %IA/g; the “Biodistribution, Tumor (tumor uptake)” value came out at 6.28 ± 2.19 %IA/g; the Tumor-to-Adrenals ratio is listed as 0.78 ± 0.11; the Tumor-to-Blood ratio came to 42.7 ± 16.4. For the same compound, in the series with LNCaP xenografts (4 h after injection), the Tumor-to-Intestine ratio was determined as 12.4 ± 4.4, the Tumor-to-Kidneys ratio amounted to 0.04 ± 0.01, the Tumor-to-Liver ratio was found to be 18.4 ± 8.5 and the Tumor-to-Muscles ratio was determined as 20.1 ± 2.5. For the same compound, in the series on LNCaP xenografts (4 h after injection), the Tumor-to-Salivary glands ratio was 3.63 ± 0.40 and the Tumor-to-Spleen ratio amounted to 0.71 ± 0.12.
`O=C([O-])CN1CCN(CC(=O)O)CCN(CC(=O)[O-])CCN(C(CCC(=O)N[C@H](Cc2ccc(O)c(I)c2)C(=O)N[C@H](Cc2ccccc2)C(=O)N[C@H](CCCCNC(=O)CCCCCCC(=O)NCCCC[C@H](NC(=O)N[C@@H](CCC(=O)O)C(=O)O)C(=O)O)C(=O)O)C(=O)O)CC1.[Cu+2]` (some centres unmarked) [^natCu-DOTAGA-PSMA-I&T] came in with an IC50 on PSMA of 11.2 ± 2.3 nM.
On PSMA, `O=C([O-])CN(CCN(CC(=O)[O-])Cc1cc(CCC(=O)NCCCCCC(=O)NCCCC[C@H](NC(=O)N[C@@H](CCC(=O)O)C(=O)O)C(=O)O)ccc1O)Cc1cc(CCC(=O)O)ccc1[O-].[Ga+3]` [^natGa-PSMA-11, reference compound] registered a concentration for half-maximal inhibition (IC50) of 2.4 ± 0.4 nM.
As for `O=C([O-])CN(CCN(CC(=O)[O-])Cc1cc(CCC(=O)NCCCCCC(=O)NCCCC[C@H](NC(=O)N[C@@H](CCC(=O)O)C(=O)O)C(=O)O)ccc1[O-])Cc1cc(CCC(=O)O)ccc1[O-].[68Ga+3].[OH3+]` [[^68Ga]Ga-PSMA-11, reference compound], the logDpH7.4 in series [1] is recorded as −3.89 ± 0.19. In addition, the “Cellular uptake (surface-bound + internalized)” value in the series with LNCaP cells is reported as 25.8% ± 0.5%. Further, in the series on LNCaP xenografts (1 h after injection), the “Biodistribution, Adrenals” value stood at 19.2 ± 5.3 %IA/g; the “Biodistribution, Blood” value came to 0.25 ± 0.07 %IA/g; the “Biodistribution, Femur” value is recorded as 3.69 ± 1.86 %IA/g; the “Biodistribution, Heart” value is given as 0.32 ± 0.10 %IA/g. Besides, in the series on LNCaP xenografts (1 h after injection), the “Biodistribution, Intestine” value turned out to be 1.52 ± 0.60 %IA/g; the “Biodistribution, Kidneys” value was found to be 159 ± 31 %IA/g; the “Biodistribution, Liver” value was determined as 0.54 ± 0.27 %IA/g; the “Biodistribution, Lung” value was 1.43 ± 0.43 %IA/g. Also, in the series on LNCaP xenografts (1 h after injection), the “Biodistribution, Muscles” value is 0.90 ± 0.36 %IA/g; the “Biodistribution, Pancreas” value is on record as 0.70 ± 0.12 %IA/g; the “Biodistribution, Salivary glands” value came out at 1.56 ± 0.31 %IA/g; the “Biodistribution, Spleen” value is 6.38 ± 1.37 %IA/g. For the same compound, in the series on LNCaP xenografts (1 h after injection), the “Biodistribution, Stomach” value is reported as 0.69 ± 0.11 %IA/g; the “Biodistribution, Tumor (tumor uptake)” value is recorded as 10.2 ± 1.5 %IA/g; the Tumor-to-Adrenals ratio worked out at 0.58 ± 0.26; the Tumor-to-Blood ratio amounted to 45.3 ± 19.7. In addition, in the series with LNCaP xenografts (1 h after injection), the Tumor-to-Intestine ratio is 8.66 ± 6.90, the Tumor-to-Kidneys ratio was determined as 0.07 ± 0.02, the Tumor-to-Liver ratio amounted to 23.5 ± 12.5 and the Tumor-to-Muscles ratio is recorded as 13.6 ± 8.3. Further, in the series on LNCaP xenografts (1 h after injection), the Tumor-to-Salivary glands ratio is 6.72 ± 1.51 and the Tumor-to-Spleen ratio was 1.69 ± 0.58.
`O=C([O-])CN1CCN(CC(=O)[O-])CCN(C(CCC(=O)N[C@H](Cc2ccc(O)c(I)c2)C(=O)N[C@H](Cc2ccccc2)C(=O)N[C@H](CCCCNC(=O)CCCCCCC(=O)NCCCC[C@H](NC(=O)N[C@@H](CCC(=O)O)C(=O)O)C(=O)O)C(=O)O)C(=O)O)CC1.[Cu+2]` (some centres unmarked) [^natCu-NODAGA-PSMA-I&T] had a half-maximal inhibitory concentration (IC50) on PSMA of 9.3 ± 1.8 nM.
Take `O=C([O-])CN1CCN(CC(=O)[O-])CCN(C(CCC(=O)N[C@H](Cc2ccc(O)c(I)c2)C(=O)N[C@H](Cc2ccccc2)C(=O)N[C@H](CCCCNC(=O)CCCCCCC(=O)NCCCC[C@H](NC(=O)N[C@@H](CCC(=O)O)C(=O)O)C(=O)O)C(=O)O)C(=O)O)CCN(CC(=O)[O-])CC1.[68Ga+3]` (some centres unmarked) [[^68Ga]Ga-DOTAGA-PSMA-I&T, reference compound]: the “Cellular uptake (surface-bound + internalized)” value in the series on LNCaP cells is on record as 20.6% ± 2.3%.
On the same count and under the same terms, the same measure for `O=C([O-])CN1CCN(CC(=O)[O-])CCN(C(CCC(=O)N[C@H](Cc2ccc(O)c(I)c2)C(=O)N[C@H](Cc2ccccc2)C(=O)N[C@H](CCCCNC(=O)CCCCCCC(=O)NCCCC[C@H](NC(=O)N[C@@H](CCC(=O)O)C(=O)O)C(=O)O)C(=O)O)C(=O)[O-])CC1.[68Ga+3]` (some centres unmarked) [[^68Ga]Ga-NODAGA-PSMA-I&T]: 18.1% ± 2.6%.

Source of the values: paper PMC11372264, “^61Cu-PSMA–Targeted PET for Prostate Cancer: From Radiotracer Development to First-in-Human Imaging” (Journal of Nuclear Medicine, 2024).
